Reference: US10617654B2, “Use of fenoterol and fenoterol analogues in the treatment of glioblastomas and astrocytomas” (priority 2010, dated 2020)
“And” between values parts separate entries of the source, which are not always exact repeats. Identical values can stand only once. Like-named read-outs stand apart in the source and are kept apart here.

Experiments:
[1] = for Individual plasma concentration: individual rat; for Individual plasma concentration / Plasma concentration, Average: 5 mg/kg IV
Description: Dose calculations (mg/kg) were based on the individual body weight measured on the day of treatment. Study duration for pharmacokinetic studies was 6 hours. […] Urine was collected for 0-6 hours and 6 to 24 hours from 3 rats in each treatment group.
In the two-compartment model, the drug distributes into two compartments, the central compartment and the tissue, or peripheral compartment. The central compartment represents the blood, extracellular fluid, and highly perfused tissues. The drug distributes rapidly and uniformly in the central compartment. A second compartment, known as the tissue or peripheral compartment, contains tissues in which the drug equilibrates more slowly. Drug transfer between the two compartments is assumed to take place by first-order processes.
The following abbreviations are utilized in Table 4 below: alpha—macro rate constant associated with the distribution phase; beta—macro rate constant associated with the elimination phase; A, B—zero time intercept associated with the alpha phase and beta phase, respectively; AUC—area under the curve; T1/2 (K10)—half-life associated with the rate constant K10; K10—elimination rate—rate at which the drug leaves the system from the central compartment; K12—rate at which drug enters tissue compartment from the central compartment; K21—rate at which drug enters central compartment from tissue compartment; V1—volume of distribution of the central compartment; V2—volume of distribution of the tissue compartment; Vss—volume of distribution at steady state; and Cl—clearance.

[2] = test system: p27, phospho-Akt, cyclin D1, cyclin A, ERK1/2 in 1321N1 cells; assay: Western blot analysis of G1 arrest proteins in 1321N1 cells; assay type: cell-based, human
Text: The ECL Plus Western Blotting Detection System of Amersham Biosciences (Piscataway, N.J.) and the procedure recommended by the manufacturer were used for the detection of antigens. Protein bands were quantified by analyzing the images obtained using an Alphaimager™ S-3400 (Alpha Innotech Corp., San Leandro, Calif.).

1321N1 cells [3] = assay: Cell cycle distribution by flow cytometry in 1321N1 cells; assay type: cell-based, human
Text: Untreated cells were used as controls.

[4] = Brain and plasma analysis of [3H]-(R,R)-methoxyfenoterol after IV administration; assay type: in vivo, male Sprague-Dawley rats; settings: 5 mg/kg IV; for Brain, Mean / Percent of Dose in Brain, Mean / Plasma, Mean: three rats; for Brain, Individual / Percent of Dose in Brain, Individual / Plasma, Individual: individual rat
Description: An overview of the research study design for evaluating the brain-to-plasma distribution of [^3H]
(specific activity 57 Ci/mmol); vehicle was sterile saline, 0.9% sodium chloride, USP. Dose formulations were prepared on the day of the study. The amount of radioactivity in the dose formulation was determined by liquid scintillation. The study lasted for an hour and radioactivity levels in plasma and brain tissue were evaluated at the conclusion of the study. Approximately 5 mls of whole blood was collected. Blood samples were collected via cardiac puncture, transferred into a tube containing K3EDTA as the anticoagulant and kept on wet ice until processed to plasma. To generate plasma, samples were centrifuged within 15 minutes of collection at 2,500 RPM for 15 minutes at room temperature. Plasma was divided equally into three labeled cryovials and stored on ample dry ice until transferred to a freezer set at ≤−20° C. for storage until analysis. Duplicate aliquots were weighed and then combined with scintillation cocktail. The [^3H] radioactivity was determined on a liquid scintillation counter. Brain samples were snap frozen in liquid nitrogen and stored at ≤−70° C. until analysis. Whole brain tissue was homogenized and the weight of the homogenate was determined. Duplicate aliquots from the homogenate were weighed, solubilized and then combined with scintillation cocktail. The [^3H] radioactivity was determined on a liquid scintillation counter.

β2-AR [5] = molecular target: T1, β2-AR (Homo sapiens (Human), UniProt P07550); settings: previously reported; cited from earlier work
T1 sequence (P07550 whole entry): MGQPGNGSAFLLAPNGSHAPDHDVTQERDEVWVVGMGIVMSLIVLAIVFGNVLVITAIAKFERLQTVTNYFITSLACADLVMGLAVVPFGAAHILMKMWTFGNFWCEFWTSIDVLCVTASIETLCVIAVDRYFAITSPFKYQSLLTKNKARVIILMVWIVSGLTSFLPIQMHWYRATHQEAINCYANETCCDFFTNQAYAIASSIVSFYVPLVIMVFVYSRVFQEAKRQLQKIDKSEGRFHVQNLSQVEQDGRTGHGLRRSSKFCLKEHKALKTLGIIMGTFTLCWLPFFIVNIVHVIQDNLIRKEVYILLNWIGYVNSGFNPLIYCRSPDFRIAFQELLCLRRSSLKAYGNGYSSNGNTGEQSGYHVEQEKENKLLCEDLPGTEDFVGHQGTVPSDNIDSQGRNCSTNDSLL

rat cardiomyocyte = assay: Rat cardiomyocyte contractility model; assay type: cell-based
β2-AR [6] = molecular target: T1, β2-AR; assay type: cell-based; settings: 1321N1 cells, basal below 0.5 nmol/mg protein
Description: HEK-β2-AR, 1321N1 or U87MG cells were plated in 96-well plates. When the cells reached confluence, the medium was removed and each well rinsed with 0.1 mL of Krebs-HEPES buffer (130 mM NaCl, 4.8 mM KCl, 1.2 mM KH2PO4, 1.3 mM CaCl2, 1.2 mM MgSO4, 25 mM HEPES, and 10 mM glucose, pH 7.3). The plates were preincubated for 10 minutes at room temperature with buffer alone; then test compound diluted in buffer was added to the wells for quadruplicate determinations. The plates were incubated for an additional 10 minutes with the test compound. After incubation, the medium was removed and 0.1 mL of 0.5 M formic acid was added. After a minimum of 1 hour, the supernatant was removed and lyophilized. cAMP was quantitated using the protein kinase binding assay of Gilman. The amount of protein per well was determined using the BCA protein determination kit (Thermo Scientific Pierce, Rockford, Ill.) and was used to calculate the amount of cAMP/mg/well.

1321N1 cells [7] = assay: Inhibition of mitogenesis, [3H]-thymidine incorporation in 1321N1 cells; assay type: cell-based, human; settings: Homo sapiens, 1321-N1, read-out: Mitogenesis Inhibition IC50
[8] = rats, 5 mg/kg intravenous, two-compartment open model
[9] = 5 min, listed as [^3H]—(R,R)-methoxyfenoterol
[10] = 60 min, listed as [^3H]—(R,R)-methoxyfenoterol

## C[C@H](Cc1ccc(O)cc1)NC[C@H](O)c1cc(O)cc(O)c1 [(R,R)-1, (R,R)-(−)-Fenoterol]
[1]; 15 min
  Individual plasma concentration: 0.36 µg/mL
[1]; 30 min
  Individual plasma concentration: 0.17 µg/mL and 0.50 µg/mL
[1]; 60 min
  Individual plasma concentration: 0.05 µg/mL
[1]; 120 min
  Individual plasma concentration: 0.03 µg/mL and 0.01 µg/mL
[1]; 300 min
  Individual plasma concentration: 0.005 µg/mL
[1]; 360 min
  Individual plasma concentration: 0.08 µg/mL and 0.03 µg/mL
[1]; rats, 15 min
  Plasma concentration, Average: 360 ng/mL
[1]; rats, 30 min
  Plasma concentration, Average: 340 ng/mL
[1]; rats, 60 min
  Plasma concentration, Average: 50 ng/mL
[1]; rats, 120 min
  Plasma concentration, Average: 20 ng/mL
[1]; rats, 240 min
  Plasma concentration, Average: 10 ng/mL
[1]; rats, 300 min
  Plasma concentration, Average: 5 ng/mL
[1]; rats, 360 min
  Plasma concentration, Average: 60 ng/mL
[1]; [8]
  A (zero time intercept, alpha phase): 1.6300 µg/mL
  AUC: 29.6861 µg·min/mL
  B (zero time intercept, beta phase): 0.0577 µg/mL
  Cl: 51.54 mL/min
  T1/2 (K10): 12.19 min
  Vss: 1911.70 mL
[2]
  phosphorylation of ERK1/2: only a modest effect
  protein expression of cyclin A: down-regulated
  protein expression of cyclin D1: down-regulated
[2]; dose dependent, nanomolar concentrations
  phosphorylation of Akt at Ser-473: inhibited phosphorylation
[2]; nanomolar concentrations
  protein levels of cyclin-dependent kinase inhibitor p27: significantly increased
1321N1 cells [3]
  lowest dose arresting the cell cycle: 0.1 nM

## COc1ccc(C[C@@H](C)NC[C@H](O)c2cc(O)cc(O)c2)cc1.Cl [[^3H]-(R,R)-methoxyfenoterol]
[4]; 5 min
  Brain, Mean: 0.92 μg-equiv/g
  Percent of Dose in Brain, Mean: 0.14%
  Plasma, Mean: 3.25 μg-equiv/ml
  Brain, Individual: 1.00 μg-equiv/g and 0.80 μg-equiv/g and 0.95 μg-equiv/g
  Percent of Dose in Brain, Individual: 0.15% (2×) and 0.12%
  Plasma, Individual: 3.30 μg-equiv/ml and 3.08 μg-equiv/ml and 3.37 μg-equiv/ml
[4]; [9]
  Brain, Mean: 0.92±0.10 μg-equiv/g
  Plasma, Mean: 3.25±0.15 μg-equiv/ml
[4]; 15 min
  Brain, Mean: 0.80 μg-equiv/g
  Percent of Dose in Brain, Mean: 0.12%
  Plasma, Mean: 1.79 μg-equiv/ml
  Brain, Individual: 0.99 μg-equiv/g and 0.36 μg-equiv/g and 1.06 μg-equiv/g
  Percent of Dose in Brain, Individual: 0.15% and 0.06% and 0.16%
  Plasma, Individual: 2.19 μg-equiv/ml and 0.89 μg-equiv/ml and 2.29 μg-equiv/ml
[4]; 30 min
  Brain, Mean: 0.72 μg-equiv/g
  Percent of Dose in Brain, Mean: 0.11%
  Plasma, Mean: 1.53 μg-equiv/ml
  Brain, Individual: 0.22 μg-equiv/g and 1.00 μg-equiv/g and 0.95 μg-equiv/g
  Percent of Dose in Brain, Individual: 0.03% and 0.15% (2×)
  Plasma, Individual: 0.63 μg-equiv/ml and 1.97 μg-equiv/ml and 2.00 μg-equiv/ml
[4]; 60 min
  Brain, Mean: 0.70 μg-equiv/g
  Percent of Dose in Brain, Mean: 0.11%
  Plasma, Mean: 1.24 μg-equiv/ml
  Brain, Individual: 0.44 μg-equiv/g and 0.53 μg-equiv/g and 1.12 μg-equiv/g
  Percent of Dose in Brain, Individual: 0.06% and 0.09% and 0.17%
  Plasma, Individual: 0.97 μg-equiv/ml and 1.01 μg-equiv/ml and 1.73 μg-equiv/ml
[4]; [10]
  Brain, Mean: 0.70±0.37 μg-equiv/g
  Plasma, Mean: 1.24±0.43 μg-equiv/ml
[4]; over 60 minutes
  percent dose found in the brain, any given animal: no more than 0.17%
[4]; from 5 minutes to 60 minutes
  decrease of plasma levels: 62%

## NCC(O)c1ccc(O)c2[nH]c(=O)ccc12 (stereo not shown) [Compound 51]
β2-AR [5]
  Ki: 6.3 µM
  Ki β1/Ki β2: 1.3

## C[C@@H](Cc1ccc(O)cc1)NC[C@@H](O)c1cc(O)cc(O)c1 [(S,S)-1, (S,S)-(+)-Fenoterol]
Rat cardiomyocyte
  EC50: 55 µM

## C=C[C@@]1(C)CC(=O)[C@]2(O)[C@@]3(C)[C@@H](O)CCC(C)(C)[C@@H]3[C@H](O)[C@H](OC(C)=O)[C@@]2(C)O1 [forskolin]
β2-AR [6]
  intracellular concentration of cAMP after treatment: ~4 nmol/mg protein

## CC[C@H](Cc1ccc(O)cc1)NC[C@H](O)c1cc(O)cc(O)c1 [(R,R)-ethylfenoterol, (R,R)-(−)-ethylfenoterol]
1321N1 cells [7]
  IC50: 0.00144 µM
Rat cardiomyocyte
  EC50: 8.55 µM
